Test results: publication PMC5013292, “A Putative Bacterial ABC Transporter Circumvents the Essentiality of Signal Peptidase” (mBio, 2016)

Legend:
[1] = molecular target: T1, full length recombinant SpsB (Staphylococcus aureus, UniProt P0A070); assay: Enzymatic activity of recombinant SpsB; format: biochemical, S. aureus; conditions: result in words; Fig. S1C
T1 construct: 500 pM full length recombinant SpsB from S. aureus
Experimental: White 384-well low-volume polypropylene assay plates (Thermo Scientific, Waltham, MA) were pre-spotted with 25 nL per well of compound 103, serially diluted in DMSO, using an Echo instrument (Labcyte, Sunnyvale, CA). A 10 µL reaction in PBS (pH 7.4) containing 0.1% Triton X-100 was then initiated by adding 500 pM full length recombinant SpsB from S. aureus plus 10 µM fluorogenic peptide substrate Dabcyl-βAla-KPAKAAE-Edans (GL Biochem, Boston, MA). Substrate cleavage separates the Dabcyl quencher from the Edans fluorophore, resulting in 490nm fluorescence (340nm excitation). The reaction was read kinetically using an M-1000 plate reader (Tecan, Morrisville, NC), plotting the initial slope (rate) of fluorescence generation versus inhibitor concentration to derive IC50 values.

[2] = system: 102 globally diverse clinical S. aureus isolates; assay: MIC, global panel of 102 clinical isolates; format: cell-based; conditions: among a panel of 102 clinical S. aureus isolates
Excerpt: Wild-type clinical S. aureus strains were obtained from the Network on Antibiotic Resistance in Staphylococcus aureus (NARSA/BEI) program. MRSA strain USA300 refers throughout this paper to strain NRS384 from NARSA/BEI. A global panel of 102 clinical S. aureus isolates was selected from the collection of International Health Management Associates, Inc. (IHMA; Schaumburg, IL), based on diversity of geographic locations, antibiotic resistance profiles, and sites of infection. Bacteria were cultured on cation-adjusted Mueller-Hinton agar (MHA) plates or in cation-adjusted Mueller-Hinton broth (MHB). Bacterial strains used in this study are listed in Table S5 in the supplemental material.
(§1) MICs were determined according to the standard protocol from the Clinical and Laboratory Standards Institute ([23]). Briefly, S. aureus bacteria were harvested from regular MHA plates that had been cultured for ~20 h at 37°C. Serial dilutions of compound 103 were incubated with bacteria at approximately 10^6 CFU (CFU)/ml in MHB in round-bottom 96 well plates (Corning, Corning, NY) for 22 h at 37°C. MICs were determined by the lowest concentration of compound 103 showing absence of growth by visual inspection.

S. aureus USA300 = assay: Frequency of spontaneous resistance, USA300; format: cell-based; conditions: agar with compound 103 at fourfold its MIC; 37°C, 2 days; output/input CFU
Experimental: (§2) To determine the frequency of spontaneous resistance, suspensions containing approximately 5 × 10^9 CFU of S. aureus were cultured on MHA plates containing compound 103 at fourfold the MIC; serial dilutions were cultured in parallel on regular MHA to determine the actual number of CFU (input). The frequency of spontaneous resistance was defined as the number of viable colonies able to grow in the presence of compound 103 after culture at 37°C for 2 days (output) divided by input.

[3] = system: USA300 SAUSA300_0352(K44A) (strain GNE0174); assay: Frequency of spontaneous resistance, GNE0174; format: cell-based, S. aureus; conditions: K44A in SAUSA300_0352 in WT USA300 background; fourfold MIC; 37°C, 2 days; approximately 2 orders of magnitude reduced
Experimental: as §2
(§3) To generate mutations in SAUSA300_0351, _0352, and _0353 genes by homologous recombination, we transformed USA300 Δmcr using targeting constructs created in the vector pIMAY ([24]). To generate mutations in SAUSA300_0351, _0352, and _0353 genes in a cro/cI mutant background, we selected colonies from USA300 Δmcr cultured on plates containing fourfold the MIC of compound 103. Sequencing of PCR products of the cro/cI gene from resistant colonies yielded a clone with a Q16stop codon mutation in cro/cI (strain GNE0173). We further mutated SAUSA300_0351, _0352, and _0353 in this USA300 Δmcr cro/cI (Q16stop) clone to study the contributions of these three genes to cro/cI-mediated resistance.

[4] = system: USA300 WT(pMK4) (GNE0163); assay: MIC fold increase, GNE0163; format: cell-based, S. aureus
Experimental: as §1

[5] = system: psarA-SAUSA300_0351_0352_0353 (GNE0162); assay: MIC fold increase, GNE0162; format: cell-based, S. aureus
Experimental: as §1, §3

[6] = system: cro/cI(M1V)(pcro/cI-cro/cI) (GNE0109); assay: MIC fold increase, GNE0109; format: cell-based, S. aureus
Experimental: as §1

[7] = system: cro/cI(−62G→A)(pcro/cI-cro/cI) (GNE0100); assay: MIC fold increase, GNE0100; format: cell-based, S. aureus
Experimental: as §1

[8] = system: Δmcr cro/cI(Q16stop) ΔSAUSA300_0351 (GNE0209); assay: MIC fold increase, GNE0209; format: cell-based, S. aureus
Experimental: as §1, §3

[9] = system: Δmcr cro/cI(Q16stop) SAUSA300_0352(K44A) (GNE0175); assay: MIC fold increase, GNE0175; format: cell-based, S. aureus
Experimental: as §1, §3

[10] = system: Δmcr cro/cI(Q16stop) ΔSAUSA300_0353 (GNE0210); assay: MIC fold increase, GNE0210; format: cell-based, S. aureus
Experimental: as §1, §3

[11] = system: SpsB Y30C mutant of USA300 Δmcr cro/cI(Q16stop) SAUSA300_0352(K44A); assay: MIC fold increase, SpsB Y30C mutant; format: cell-based, S. aureus
Experimental: as §1

[12] = system: SpsB Y30D mutant of USA300 Δmcr cro/cI(Q16stop) SAUSA300_0352(K44A); assay: MIC fold increase, SpsB Y30D mutant; format: cell-based, S. aureus
Experimental: as §1

[13] = system: SpsB Y30S mutant of USA300 Δmcr cro/cI(Q16stop) SAUSA300_0352(K44A); assay: MIC fold increase, SpsB Y30S mutant; format: cell-based, S. aureus
Experimental: as §1

[14] = system: SpsB H69L mutant of USA300 Δmcr cro/cI(Q16stop) SAUSA300_0352(K44A); assay: MIC fold increase, SpsB H69L mutant; format: cell-based, S. aureus
Experimental: as §1

[15] = system: SpsB V167D mutant of USA300 Δmcr cro/cI(Q16stop) SAUSA300_0352(K44A); assay: MIC fold increase, SpsB V167D mutant; format: cell-based, S. aureus
Experimental: as §1

[16] = system: SpsB V167F mutant of USA300 Δmcr cro/cI(Q16stop) SAUSA300_0352(K44A); assay: MIC fold increase, SpsB V167F mutant; format: cell-based, S. aureus
Experimental: as §1

T1 sequence (P0A070 whole entry): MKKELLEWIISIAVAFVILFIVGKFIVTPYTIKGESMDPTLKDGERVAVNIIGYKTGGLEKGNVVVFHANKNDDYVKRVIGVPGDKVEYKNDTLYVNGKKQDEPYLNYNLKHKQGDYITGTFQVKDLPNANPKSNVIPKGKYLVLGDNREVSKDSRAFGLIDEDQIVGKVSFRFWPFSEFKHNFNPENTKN

For `CCCCc1ccc(-c2ccc(C(=O)N[C@@H](CCCCN)C(=O)N(C)[C@@H]3C(=O)N[C@@H](C)C(=O)N[C@H](C(=O)NCC(C)C(=O)O)Cc4ccc(O)c(c4)-c4cc3ccc4O)cc2)cc1` (some centres unmarked) [Compound 103], the “inhibition of enzymatic activity of recombinant SpsB” value [1] was “dose dependently inhibited”, the “isolates resistant to compound 103” value [2] was 7 isolates and the “frequency of spontaneous resistance” value (S. aureus USA300) was 3 × 10^−7. For the same compound, the “frequency of spontaneous resistance” value [3] was 2 × 10^−9, the “MIC of compound 103 (fold increase versus MIC for USA300 WT)” value [4] was 1.0 fold and the “MIC of compound 103 (fold increase versus MIC for USA300 WT)” value ([5]; GNE0162) was >32 fold. For the same compound, the resistance phenotype ([5]; GNE0162, overexpression of 3 ABC transporter genes, result in words) was “induced resistance”, the “MIC of compound 103 (fold increase versus MIC for USA300 WT)” value ([6]; GNE0109) was 1.7 fold and the resistance phenotype ([6]; GNE0109, plasmid-encoded WT cro/cI, result in words) was “reversed the resistant phenotype”. For the same compound, the “MIC of compound 103 (fold increase versus MIC for USA300 WT)” value ([7]; GNE0100) was >32 fold, the resistance phenotype ([7]; GNE0100, plasmid-encoded WT cro/cI, result in words) was “could not complement the phenotype” and the “MIC of compound 103 (fold increase versus MIC for USA300 WT)” value ([8]; GNE0209) was >32 fold. The resistance phenotype ([8]; GNE0209, deletion of SAUSA300_0351, result in words) was “had no effect on the resistance phenotype”, the “MIC of compound 103 (fold increase versus MIC for USA300 WT)” value ([9]; GNE0175) was 1.0 fold and the resistance phenotype ([9]; GNE0175, SAUSA300_0352(K44A), result in words) was “reversed the resistant phenotype”. The “MIC of compound 103 (fold increase versus MIC for USA300 WT)” value ([10]; GNE0210) was 1.0 fold, the resistance phenotype ([10]; GNE0210, deletion of SAUSA300_0353, result in words) was “reversed the resistant phenotype” and the “MIC of compound 103 (fold increase versus MIC for USA300 WT)” value [11] was 4 fold. For the same compound, the “MIC of compound 103 (fold increase versus MIC for USA300 WT)” value [12] was 8 fold, the “MIC of compound 103 (fold increase versus MIC for USA300 WT)” value [13] was 4 fold and the “MIC of compound 103 (fold increase versus MIC for USA300 WT)” value [14] was 4 fold. For the same compound, the “MIC of compound 103 (fold increase versus MIC for USA300 WT)” value [15] was 8 fold and the “MIC of compound 103 (fold increase versus MIC for USA300 WT)” value [16] was 8 fold.
